Results reported in US10209240B2, “Predicting human developmental toxicity of pharmaceuticals using human stem-like cells and metabolomic ratios” (STEMINA BIOMARKER DISCOVERY, INC., priority 2012, dated 2019).
Where two headings read alike, the source gives them in different places.

Legend:
hES cells [1] = experiment: devTOX computational model predictions (Version 2.0, Version 2.1) from hES cell metabolomics; assay type: cell-based, human; details: single dose per treatment (Dose column)
Text: The selection process weighted the predictive capacity of a feature, overall intensity, and peak shape to identify very well behaved features/metabolites that could be measured by targeted LC-MS or even by other detection systems.
(§1) This simplified model is based on a ratio of the reference treatment (DMSO) normalized values of ADMA and cystine.

Humans = details: cited from earlier work; for Known Effect: validation and test set treatments of Example 2; for Humans (known human developmental toxicity): training and test set
hES cells [2] = experiment: ADMA/cystine ratio simplified predictive model in hES cell spent media; assay type: cell-based, human; details: single dose per treatment; ratios less than 0.9 indicate teratogenicity
Text: as §1
The X-axis is the reference normalized ratio of ADMA/Cystine. The y-axis is the training set of pharmaceuticals. Grey color with triangle glyphs represents teratogens and black color with circle glyphs represents non-teratogens. Each glyph point represents the media value of an independent experimental block (6 reps per block). The crosshair glyphs mark the sample medians. In FIG. 9, grey vertical line is threshold of teratogenicity, grey horizontal lines are the median absolute deviations, and black vertical line designates 1.0. The arrows at the bottom indicate the values used for differentiation of teratogens and nonteratogens, utilizing a cut off of 0.9 (grey line).

[3] = summarized from TERIS and Briggs et al. 2011, cited from earlier work
[4] = therapeutic peak plasma in vivo concentration, human, cited from earlier work
WA09 hES cells [5] = experiment: Phase 2 targeted biomarker assay, ornithine/cystine ratio, 9-point dose response; details: for Teratogenicity Potential (μM) O/C Ratio: human, 72 h
Text: Undifferentiated hES Cell Line Maintenance (Phases 1 and 2). WA09 hES cells were obtained from the WiCell Research Institute (Madison, Wis.) and were maintained in feeder free conditions using mTeSR1 media (StemCell Technologies, Inc., Vancouver, BC, Canada) on hESC-qualified Matrigel (BD Biosciences, San Jose, Calif.) coated 6-well plates. To maintain the undifferentiated stem cell population, differentiated colonies were removed daily through aspiration and media was replaced. Additionally, the hES cells were only used in experiments up to passage 40 and were karyotyped approximately every 10 passages to minimize and monitor the potential for genetic instability. hES cells were passaged at 90-95% confluency (approximately every 7 days) using Versene (Life Technologies, Grand Island, N.Y.). Cell cultures were maintained at 37° C. under 5% CO2.
96-well hES Cell Plating (Phases 1 and 2). All experimental treatments were carried out in 96-well plates. To minimize plating variability and increase reproducibility, hES cells were plated as a single cell suspension and maintained in an undifferentiated state during compound exposure. Prior to plating in the 96-well plates, hES cells were removed from a 6-well plate using TrypLE (Life Technologies). The cells were washed with DMEM/F12 (Life Technologies) and resuspended in mTeSR1 containing 10 μM Y27632 Rho-associated kinase (ROCK) inhibitor (Merck KGaA/Calbiochem, Darmstadt, Germany). The ROCK inhibitor is added to the plating media to increase plating efficiency by decreasing dissociation-induced apoptosis. The inner 60 wells of hESC-qualified Matrigel coated 96-well plates were seeded at a density of 100,000 cells per well. The outer wells of the plate contained an equal volume media to minimize differences in humidity across the plate. Compound exposure began 24 hours after plating.
(§2) Phase 2 hES Cell Compound Exposure. […] The standard compound exposure levels used for most compounds were nine, 3-fold dilutions ranging from 0.04 μM-300 μM (FIG. 1B). […] The stock solution was diluted 1:1000 in mTeSR1 media and subsequent dilutions were performed in mTeSR1 containing 0.1% DMSO such that the final concentration of DMSO was 0.1% in all treatments. hES cells were treated for 72 hours and spent media from the last 24-hour treatment period was collected and added to acetonitrile containing ^13C6 labeled arginine (Cambridge Isotope Laboratories, Andover, Md.) as described under Phase 1. Spent media samples were stored at −80° C. until prepared for LC-HRMS analysis. Cell viability was assessed using the CellTiter-Fluor Cell Viability Assay. A quality control step was included with criteria that the CV of the measured viability RFU of the DMSO control cells could not exceed 10% for a plate to undergo LC-HRMS analysis. A dose response curve was fit to the reference treatment (0.1% DMSO treated control cells) normalized data (Viability RFUTrt X/Viability RFUDMSO) using a four-parameter log-logistic model with the R package “drc” (Ritz and Streibig, 2005, J Statistical Software; 12:1-22).
Sample Preparation (Phases 1 and 2). High molecular weight constituents (>10 KDa) of the spent media samples were removed using a Millipore Multiscreen Ultracel-10 filter plate (EMD Millipore, Billerica, Mass.). Prior to sample filtration, the filter plate was washed with 0.1% NaOH to remove a known contaminant polymer. The plate was then rinsed twice with HPLC-grade water to remove residual polymers and NaOH. Spent media samples were added to the washed filter plate. In Phase 1, samples were spiked with ^13C6 labeled arginine. Samples were centrifuged at 2,000×g at 4° C. for 200 minutes. The filtrate was collected and concentrated overnight in a Savant High Capacity Speedvac Plus Concentrator.

Rodent = details: training and test set; cited from earlier work
WA09 hES cells [6] = system: WA09 hES cells
Procedure: Phase I hES Cell Compound Exposure. hES cells were treated with a test compound at a single concentration equivalent to the compound's published therapeutic Cmax. […] This was done to ensure that enough cells were present at the time of sample collection to provide a signal for LC-HRMS analysis. For test compound exposure, all compound stock solutions, with the exception of valproic acid, were made with DMSO (Sigma-Aldrich). […] Each 96-well plate included media controls with and without test compound, 0.1% DMSO solvent control cells and cells exposed to a single concentration of eight different test compounds (FIG. 1A). Media controls were included on each plate to assess the impact of test compound on the sample matrix. hES cells were exposed to the test compound for 72 hours, with media and test compound replacement every 24 hours. Cells were monitored throughout the treatment period to ensure that no differentiation was occurring. After 72 hours of treatment, the spent media from the final 24-hour treatment period was collected and added to acetonitrile (Sigma-Aldrich, final acetonitrile concentration 40%), to halt metabolic processes and precipitate proteins from solution. Individual wells from each 96-well plate were collected and analyzed as separate samples. These samples were then stored at −80° C. until prepared for LC-HRMS analysis. Cell viability was assessed using the CellTiter-Fluor Cell Viability Assay as per the manufacturer's instructions (Promega, Madison, Wis.). Quality control parameters were set such that if the coefficient of variation (CV) for the viability relative fluorescent units (RFU) of the 6 cellular samples in a treatment exceeded 10% and no outliers were identified using the Grubb's test (see the worldwide web at graphpad.com/quickcalcs/Grubbs1.cfm), analysis was halted for that compound and the cell culture experiment was repeated. If outliers were present, the outlier sample was removed from analysis. If the CV for the DMSO control cell samples on a plate were outside of the quality control parameters, the entire plate was repeated. hES cell exposure to each of the 23 compounds was replicated a total of nine times.
as §2
Phase 2 Prediction of Developmental Toxicity Potential. […] FIG. 2 illustrates how the assay is applied in this situation. A test compound is considered to be teratogenic at the exposure level where the o/c ratio exceeds the teratogenicity threshold (red box, FIG. 2).

Rabbit = details: training and test set; cited from earlier work

SMILES	Model Predictions Version 2.0 (hES cells [1])	Model Predictions Version 2.1 (hES cells [1])	Known Effect (Humans)	Model Predictions ADMA/Cystine (hES cells [2])	Preclinical in vivo and known human developmental effects ([3]; test set compounds)	Cmax ([4]; test set)	O/C Ratio Prediction (WA09 hES cells [5])	Targeted Biomarker Assay prediction (WA09 hES cells [5])	Teratogenicity Potential (μM) O/C Ratio (WA09 hES cells [5])	Humans (known human developmental toxicity) (Humans)	Rodent prediction (Rodent)	Viability Prediction (WA09 hES cells [6])	Teratogenicity Potential (μM) Cell Viability (WA09 hES cells [6]; human, 72 h)	Cmax ([4]; training set)	Cytotoxicity at the Cmax exposure level (WA09 hES cells [6]; human, 72 h)	Rabbit prediction (Rabbit)	Preclinical in vivo and known human developmental effects ([3]; training set compounds)	Targeted Biomarker Assay prediction (WA09 hES cells [5]; training and test set, o/c ratio scored against therapeutic Cmax)	Teratogenicity Potential (μM) Cell Viability (WA09 hES cells [6]; training set, interpolated concentration where cell viability dose response curve crosses teratogenicity threshold 0.88, 72 hours)	Viability Prediction (WA09 hES cells [6]; training set, teratogenicity potential scored against therapeutic Cmax)
C=CC=O [Acrolein]	Ter	Ter	Ter	Ter	–	–	–	–	–	–	–	–	–	–	–	–	–	–	–	–
CC1(C)S[C@@H]2[C@H](NC(=O)[C@H](N)c3ccc(O)cc3)C(=O)N2[C@H]1C(=O)O [Amoxicillin]	Non	Non	Non	Non	None	20.5 µM	NON	NON	>300 µM	NON	NON	NON	>300 µM	–	–	–	–	–	–	–
O=C1O[C@H]([C@@H](O)CO)C(O)=C1O [Ascorbic Acid]	Non	Non	–	Non	–	–	–	NON	–	–	–	NON	>300 µM	90 µM	–	–	–	–	–	–
CN(C)CCOC(c1ccccc1)c1ccccc1 [Diphenhydramine]	Non	Non	–	Non	–	–	–	NON	–	–	–	NON	78.9 µM	–	–	–	–	–	–	–
CN(C)CCOC(C)(c1ccccc1)c1ccccn1 (centres unmarked) [Doxylamine]	Non	Non	–	Non	–	–	–	NON	–	NON	–	NON	>300 µM	0.38 µM	–	–	–	–	–	–
NC(=O)NO [Hydroxyurea]	Ter	Ter	–	Ter	–	–	–	TER	–	TER	–	TER	251.6 µM	565 µM	greater than 30%	–	–	–	–	–
N[C@@H](CC(=O)N1CCn2c(nnc2C(F)(F)F)C1)Cc1cc(F)c(F)cc1F [Sitagliptin]	–	–	–	–	Low doses: None; High	0.95 µM	NON	NON	22.6 µM	NON	TER	NON	>300 µM	–	–	NON	–	–	–	–
Cc1ncc(C[n+]2csc(CCO)c2C)c(N)n1 [Thiamine]	Non	Non	Non	Non	–	–	NON	NON	>300 µM	NON	–	NON	>300 µM	0.67 µM	–	–	None	–	–	–
CC(=O)CC(c1ccccc1)c1c(O)c2ccccc2oc1=O (centres unmarked) [Warfarin]	Ter	Ter	–	Ter	–	–	–	–	–	TER	–	–	–	23.4 µM	–	–	–	TER	>300 µM	NON
